Test results: patent publication US8940730B2, “Methods and compositions of treating a Flaviviridae family viral infection” (The Board of Trustees of the Leland Stanford Junior …, priority 2007, dated 2015)

What was measured:
HCV 1b RNA replicon = assay: Luciferase assay for HCV genotype 1b replicon reporter cell lines; settings: Hepatitis C virus, Huh-7, 48 h, read-out: 1b EC50, 1b replicon, Huh7, 48 hours, top concentration 25 μM
[1] = tested on: HCV genotype 2a infectious clone; assay: HCV genotype 2a infectious clone assay (Renilla luciferase); format: cell-based; settings: Hepatitis C virus, read-out: 2a (% activity @ 5 μM), 5 μM; % replication activity of control with no test compound
Procedure: The assays in parts A and B were used to generate the genotype 1b inhibitory activity and related cell toxicity (viability) data supported herein. This assay has been used to generate the genotype 2a inhibitory activity data supported herein.
(§1) 1) Wash cells once with PBS, trypsinize. […] Mix twice by pipeting. […] Make a common stock from all tubes. […] 15) Incubate for 24 hr before treatment.
(§2) 3) Repeat daily for 2 more days.

Huh7 cell line = assay: MTT assay for HCV replicon reporter cell lines (cell toxicity); format: cell-based; settings: Homo sapiens, Huh-7; cell toxicity, MTT, top concentration 25 μM; read-out: Cell Viability EC50
hERG channel = target: T1, hERG channel (Homo sapiens, UniProt Q12809); assay: HERG channel assay (whole cell patch clamp, CHO cells); format: cell-based; settings: CHO cells expressing hERG, tail current
T1 construct: host or cells: CHO (Chinese Hamster Ovary), stably transfected
Procedure: Solutions: For electrophysiological recordings, the following solutions were used. External Solution: 2 mM CaCl2; 2 mM MgCl2; 4 mM KCl; 150 mM NaCl; 10 mM Glucose; 10 mM HEPES; 310-320 mOsm; pH 7.4 (adjusted with 1M NaOH). Internal Solution: 140 mM KCl; 10 mM MgCl2; 6 mM EGTA; 5 mM HEPESNa; […]; 300-320 mOsm; pH 7.25 (adjusted with 1M KOH).
Next, 1 μM cisapride (positive control) was added.
Data Analysis: Data analysis was performed using DataXpress (Axon Instruments), Clampfit (Axon Instruments) and Origin (Originlab Corporation) software.
In addition, activity against hERG potassium channel was tested on representative compounds. […] Compounds having a structure similar to that of EBP288 (compounds that contain, in R3, an N-attached heterocycle where substitutions adjacent to the nitrogen are small) should have a similar activity in this assay. […] Compounds having a structure similar to the aforementioned compound (compounds that contain, in R3, a C-attached heterocycle where heteroatom is acylated N) should have a similar activity in this assay. Generally, compounds that show no or only low activity in the hERG assay are preferred.

Huh7.5 cells = settings: human, 3 days
Procedure: as §1, §2
1) Alamar blue assay—a) Include medium for background subtraction (and also for seeing change in color easily). b) Aspirate medium. c) Make a stock of medium plus 10% Alamar blue. Total volume per well is 100 μl. d) Incubate for 2-2.5 hrs at 37° C. (or until there is a color change). c) Read plates at flex station.

T1 sequence (Q12809 whole entry): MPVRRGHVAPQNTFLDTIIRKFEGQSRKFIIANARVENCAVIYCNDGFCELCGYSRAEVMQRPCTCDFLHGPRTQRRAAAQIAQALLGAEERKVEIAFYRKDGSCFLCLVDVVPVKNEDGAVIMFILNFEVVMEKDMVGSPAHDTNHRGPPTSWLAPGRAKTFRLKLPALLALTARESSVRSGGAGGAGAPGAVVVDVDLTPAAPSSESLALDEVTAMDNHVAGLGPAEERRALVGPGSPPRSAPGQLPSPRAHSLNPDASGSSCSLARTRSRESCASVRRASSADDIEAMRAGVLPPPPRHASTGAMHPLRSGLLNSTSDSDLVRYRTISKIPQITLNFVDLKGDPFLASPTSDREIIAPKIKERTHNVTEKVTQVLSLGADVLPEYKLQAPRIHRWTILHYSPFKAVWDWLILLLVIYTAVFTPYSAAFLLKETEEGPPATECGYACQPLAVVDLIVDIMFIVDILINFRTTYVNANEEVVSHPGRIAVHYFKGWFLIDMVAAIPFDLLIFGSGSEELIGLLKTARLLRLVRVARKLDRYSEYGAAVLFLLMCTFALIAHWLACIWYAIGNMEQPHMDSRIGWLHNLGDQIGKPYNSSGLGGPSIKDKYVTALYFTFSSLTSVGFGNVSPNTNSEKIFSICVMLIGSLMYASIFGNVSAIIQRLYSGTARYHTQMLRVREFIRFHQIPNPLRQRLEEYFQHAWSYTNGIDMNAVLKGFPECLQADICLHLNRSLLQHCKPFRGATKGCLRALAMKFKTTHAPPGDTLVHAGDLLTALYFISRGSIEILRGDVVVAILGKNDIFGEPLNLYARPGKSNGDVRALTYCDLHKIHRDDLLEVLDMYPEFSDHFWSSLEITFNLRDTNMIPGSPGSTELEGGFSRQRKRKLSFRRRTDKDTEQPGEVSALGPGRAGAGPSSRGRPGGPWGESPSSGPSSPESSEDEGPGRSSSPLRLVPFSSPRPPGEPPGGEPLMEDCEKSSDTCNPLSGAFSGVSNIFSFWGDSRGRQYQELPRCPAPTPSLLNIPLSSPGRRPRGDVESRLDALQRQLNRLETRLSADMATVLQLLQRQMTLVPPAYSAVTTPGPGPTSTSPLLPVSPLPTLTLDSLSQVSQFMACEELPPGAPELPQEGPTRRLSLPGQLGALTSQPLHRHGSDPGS

| SMILES | EC50 (HCV 1b RNA replicon) [µM] | activity at 5 µM [1] [%] | EC50 (Huh7 cell line) [µM] | IC50 (hERG channel) [µM] | 2a cell viability (@ 5 μM) (Huh7.5 cells) [%] |
| --- | --- | --- | --- | --- | --- |
| Clc1ccc(Cn2nc(OCCCN3CCCC3)c3ccccc32)cc1 [EBP288] | 3.7 | 24 | > 25 | 1 | 89 |
| CC(C)c1ccc(Cn2nc(OCCN3CCCC3)c3ccccc32)cc1 [EBP336] | 5.1 | 38 | > 25 |  | 95 |
| OC[C@@H]1CCCN1CCCOc1nn(Cc2ccc(Cl)cc2)c2ccccc12 [EBP383] | 4.2 | 35 | > 25 | 0.9 | 100 |
| NC(=O)[C@@H]1CCCN1CCCOc1nn(Cc2ccc(Cl)cc2)c2ccccc12 [EBP385] |  | 75 |  |  | 100 |
| Clc1ccc(Cn2nc(OCCCN3CCCC3c3ccccc3)c3ccccc32)cc1 (centres unmarked) [EBP387] | 6.4 | 35 | > 25 | 3.3 | 100 |
| C[C@H]1CCCN1CCCOc1nn(Cc2ccc(Cl)cc2)c2ccccc12 [EBP391] | 4 | 35 | > 25 | 0.23 | 100 |
| O[C@@H]1CCN(CCCOc2nn(Cc3ccc(Cl)cc3)c3ccccc23)C1 [EBP393] | 4.5 | 42 | > 25 | 0.9 | 100 |
| Clc1ccc(Cn2nc(OCCCN3CCC[C@H]3CN3CCCC3)c3ccccc32)cc1 [EBP395] | 4.4 | 41 | > 25 | 2 | 89 |
| Clc1ccc(Cn2nc(OCCCN3CCCCCC3)c3ccccc32)cc1 [EBP397] | 2.8 | 14 | > 25 |  | 100 |
| O[C@H]1CCN(CCOc2nn(Cc3ccc(Cl)cc3)c3ccccc23)C1 [EBP400] |  | 84 |  |  | 100 |
| Clc1ccc(Cn2nc(OCCN3CCC[C@H]3CN3CCCC3)c3ccccc32)cc1 [EBP403] | 3.8 | 50 | > 25 |  | 97 |
| C[C@@H](COc1nn(Cc2ccc(Cl)cc2)c2ccccc12)CN1CCC[C@H]1CO [EBP449] |  | 83 |  |  | 99 |
| C[C@H](COc1nn(Cc2ccc(Cl)cc2)c2ccccc12)CN1CCC[C@H]1CO [EBP454] |  | 69 |  |  | 93 |
| OCC1CCCCN1CCCOc1nn(Cc2ccc(Cl)cc2)c2ccc(Cl)cc12 (centres unmarked) [EBP503] | 7.2 | 36 | > 25 |  | 86 |
| COC(=O)C1CCCCN1CCCOc1nn(Cc2ccc(Cl)cc2)c2ccccc12 (centres unmarked) [EBP505] |  | 87 |  |  | 94 |
| COC(=O)[C@@H]1CC[C@H](O)N1CCCOc1nn(Cc2ccc(Cl)cc2)c2ccccc12 [EBP507] |  | 87 |  |  | 90 |
| O=C(O)C[C@@H]1CCCN1CCCOc1nn(Cc2ccc(Cl)cc2)c2ccccc12 [EBP508] |  | 77 |  |  | 100 |
| CCOC(=O)[C@@H]1CCCN1CCCOc1nn(Cc2ccc(Cl)cc2)c2ccccc12 [EBP512] |  | 78 |  |  | 100 |
| O[C@H]1CC[C@H](O)N1CCCOc1nn(Cc2ccc(Cl)cc2)c2ccccc12 [EBP515] | 4.9 |  | > 25 | 2.6 |  |
| OC[C@H]1CCCN1CCCOc1nn(Cc2ccc(Cl)cc2)c2ccccc12 [EBP516] | 4.7 |  | > 25 | 0.81 |  |
| Clc1ccc(Cn2nc(OCCCN3CCC[C@H]3CNc3ccccc3)c3ccccc32)cc1 [EBP524] | 8.3 |  | > 25 | 2.6 |  |
| CCN(CC)c1ccc2c(c1)c(OCCCN1CCCC1)nn2Cc1ccc(Cl)cc1 [EBP534] | 3.3 |  | > 25 | 2.8 |  |
| Clc1ccc(Cn2nc(OCC3CCNCC3)c3cc(Cl)ccc32)cc1 [EBP640] | 5 |  | > 25 | 5.3 |  |
